Measured values as given in patent publication US20100273656A1, “COMPOSITION AND METHOD FOR SELECTIVE HERBICIDE” (priority 2002, published 2010).

Columns and labels:
grass = assay: Example 2 field test of FeEDDS and FeHEDTA at pH 3 and 7, grass; format: in vivo; details: in vivo
Procedure: (§1) The following non-limiting examples serve to further describe the invention. Unless otherwise specified, all of the iron solutions were made using the same molar concentration of iron ion as chelating agent. All of the outside tests were done on areas of mixed grass and dandelions that were at least 2 months old. For the greenhouse tests, dandelions were grown in a commercial greenhouse mix, using supplemental lighting and heating. Each plant was grown in a 2¼ inch pot to a minimum diameter of 20 cm. All of the solutions were sprayed onto the plants at a rate of 100 ml/m^2. The ferrous sulfate formulations that were used in examples 1, 2, 8 and 9 contained 1% iron (180 mM), 18 mM EDTA, 1% citric acid and 0.5% urea. In all of the examples, the amount of iron is identified in brackets as the percent iron on a weight basis.
(§2) All plant damage was assessed using a qualitative rating scale from 0 to 9.
The FeEDDS and FeHEDTA solutions contained 0.2% Fe^+3 (35.8 mM). The ferrous sulfate contained 1% Fe^+2 (179.1 mM). The solutions were sprayed at a rate of 0.1 L/m^2 onto 2 plots of 0.5 m^2 of mixed grass and dandelions. Observations were made 4 days after spraying.

dandelions [1] = assay: Example 4 effect of pH on FeHEDTA, greenhouse dandelions; format: in vivo, Taraxacum officinale; details: for Dead (#/10): 8 + 5 days after spraying
Procedure: as §1, §2
This test compared the effects of FeHEDTA at a range of pH values to potted, greenhouse-grown dandelions. All of the solutions were applied at 0.2% Fe^+3 (35.8 mM). Ammonium sulfate was added at 2%. The plants were re-sprayed after 8 days.

dandelions [2] = assay: Example 6 various Fe chelates, dandelion phytotoxicity; format: in vivo, Taraxacum officinale
Procedure: as §1, §2
This test compared EDG (ethanol diglycine) and EDDS at 0.4% Fe+3 (71.6 mM), with HEDTA 0.2% Fe+3 (35.8 mM). FeEDDS and FeEDG were made with 100% excess chelating agent. FeHEDTA was made with 10% excess chelating agent. The solutions were sprayed onto greenhouse grown dandelions. The plants were resprayed after 7 days.

dandelions [3] = assay: Example 10 FeHEDTA at 0.1% and 0.2% Fe on potted dandelions; format: in vivo, Taraxacum officinale
Procedure: This test investigated using 0.1% (17.9 mM) and 0.2% (35.8 mM) iron, as FeHEDTA, to kill potted dandelions. The solutions contained 10% excess chelating agent.
Small (12 cm diameter) to medium (20 cm diameter) sized, greenhouse-grown dandelions were used. These sizes of dandelions are typically found in lawns. The plants were re-sprayed 7 days after the first spray.

[4] = test system: dandelion (Taraxacum officinale); assay: Example 12 FeHEDTA field test, dandelion; format: in vivo; details: for Survival of Dandelion Plants (%): day 7/day 0
Procedure: This test evaluated FeHEDTA with 0.15% and 0.2% Fe for controlling the chickweed scarlet pimpernel (Anagallis arvensis) and dandelion (Taraxacum officinale). The solution contained 1.3 times the molar amount of chelating agent as iron. Field areas of well established chickweed and dandelion (0.5 m^2) were sprayed at a rate of 100 ml/m^2.

white clover = assay: Example 17 iron chelates with Killex, white clover; format: in vivo
Procedure: (§3) Plants were fertilized with an all purpose water-soluble fertilizer mix of 20-20-20 (N-P-K; Plant-Prod®) as needed. All broadleaf weeds were grown individually in a 2¼-inch pot until they were a suitable size for herbicide tests (actual weed size is reported in examples below). Perennial ryegrass was also grown in 2¼-inch pots, however many grass seeds were sown in the pot to simulate a small section of turf. Grass plants were continually trimmed to a height of 4 cm, simulating that of a homeowner's lawn. For field tests, plots ¼ m^2 in size were marked out in areas containing the targeted broadleaf weed species growing in turf grass. Plots were continually mowed to simulate a homeowner's lawn. […] In all of the examples, the amounts of the various herbicide components are identified as a percent on a weight basis.
Killex® (Scotts Canada, Ltd., Ontario, Canada) is a commonly used selective lawn herbicide and was used as the commercial herbicide for herbicide combinations. The labeled dilution and application rates for Killex® are 6 ml into 1 L of solution (0.6%) applied at 200 ml/m^2.
(§4) All visual plant damage assessments were made using a quantitative rating scale; percent control relative to the untreated check (0=no effect; 100=plant death).
Materials and Methods: This trial was conducted in the greenhouse. Nine pots of white clover and 10 pots of perennial ryegrass were selected for each treatment. Herbicidal solutions were prepared using deionized water. The treatments were applied using a handheld trigger sprayer at 200 ml/m^2. All treatments were applied once. Phytotoxicity (%) was assessed 4, 7, and 14 days after application (A4, A7, and A14).

Park Lawn = assay: Example 22 field test FeIDS and/or FeHEDTA with Killex, Park Lawn; format: in vivo; details: A7 = 7 days after treatment
Procedure: as §3, with “basis. […]” for “basis.”
as §4
Materials and Methods: Plots ¼ m^2 in size were marked out in white clover and Park Lawn (turfgrass mixture comprising of 65% perennial ryegrass, 25% chewings/creeping red fescue and 10% Kentucky bluegrass) area in the field. […] Phytotoxicity (%) was assessed on 7 days after treatment (A7).

## O=C([O-])CN(CCO)CCN(CC(=O)[O-])CC(=O)[O-].[Fe+3] [FeHEDTA]
grass; pH 2.6
  Grass Damage (0 to 9): 0.0 0 to 9
grass; pH 7
  Grass Damage (0 to 9): 1.0 0 to 9
Dandelions [1]; 8 + 5 days after spraying (re-sprayed after 8 days), listed as FeHEDTA pH 3 (0.2% Fe)
  Plant Damage (0 to 9): 6.8 0 to 9
Dandelions [1]; 8 + 5 days after spraying (re-sprayed after 8 days), listed as FeHEDTA pH 5 (0.2% Fe)
  Plant Damage (0 to 9): 5.4 0 to 9
Dandelions [1]; 8 + 5 days after spraying (re-sprayed after 8 days), listed as FeHEDTA pH 7 (0.2% Fe)
  Plant Damage (0 to 9): 5.1 0 to 9
Dandelions [1]; 8 + 5 days after spraying (re-sprayed after 8 days), listed as FeHEDTA pH 9 (0.2% Fe)
  Plant Damage (0 to 9): 3.6 0 to 9
Dandelions [1]; 8 + 5 days after spraying (re-sprayed after 8 days), listed as FeHEDTA pH 11 (0.2% Fe)
  Plant Damage (0 to 9): 6.6 0 to 9
Dandelions [1]; listed as FeHEDTA pH 3 (0.2% Fe)
  Dead (#/10): 5 #/10
Dandelions [1]; listed as FeHEDTA pH 5 (0.2% Fe)
  Dead (#/10): 3 #/10
Dandelions [1]; listed as FeHEDTA pH 7 (0.2% Fe)
  Dead (#/10): 2 #/10
Dandelions [1]; listed as FeHEDTA pH 9 (0.2% Fe)
  Dead (#/10): 1 #/10
Dandelions [1]; listed as FeHEDTA pH 11 (0.2% Fe)
  Dead (#/10): 5 #/10
Dandelions [1]; 7 days after spraying, listed as FeHEDTA pH 3 (0.2% Fe)
  Plant Damage (0 to 9): 3.2 0 to 9
Dandelions [1]; 7 days after spraying, listed as FeHEDTA pH 5 (0.2% Fe)
  Plant Damage (0 to 9): 2.6 0 to 9
Dandelions [1]; 7 days after spraying, listed as FeHEDTA pH 7 (0.2% Fe)
  Plant Damage (0 to 9): 1.9 0 to 9
Dandelions [1]; 7 days after spraying, listed as FeHEDTA pH 9 (0.2% Fe)
  Plant Damage (0 to 9): 2.0 0 to 9
Dandelions [1]; 7 days after spraying, listed as FeHEDTA pH 11 (0.2% Fe)
  Plant Damage (0 to 9): 3.8 0 to 9
Dandelions [2]; 7 + 5 days after spraying
  Dead Plants (#/10): 3 #/10
Dandelions [2]; 7 + 5 days after spraying (resprayed after 7 days)
  Plant Damage (0 to 9): 8.1 0 to 9
Dandelions [2]; 7 days after spraying
  Plant Damage (0 to 9): 1.3 0 to 9
Dandelions [3]; 12 to 20 cm diameter dandelions
  susceptibility of dandelions, in words: very susceptible
Dandelions [3]; dandelion diameter 12 cm, 7 + 6 days (re-sprayed after 7 days)
  Dead Dandelions (#/10): 10 #/10
Dandelions [3]; dandelion diameter 12 cm, 6 days after spraying, listed as FeHEDTA (0.1% Fe)
  Dead Dandelions (#/10): 2 #/10
Dandelions [3]; dandelion diameter 12 cm, 6 days after spraying, listed as FeHEDTA (0.2% Fe)
  Dead Dandelions (#/10): 8 #/10
Dandelions [3]; dandelion diameter 16 cm, 7 + 6 days, listed as FeHEDTA (0.1% Fe)
  Dead Dandelions (#/10): 3 #/10
Dandelions [3]; dandelion diameter 16 cm, 7 + 6 days, listed as FeHEDTA (0.2% Fe)
  Dead Dandelions (#/10): 10 #/10
Dandelions [3]; dandelion diameter 16 cm, 6 days after spraying, listed as FeHEDTA (0.1% Fe)
  Dead Dandelions (#/10): 1 #/10
Dandelions [3]; dandelion diameter 16 cm, 6 days after spraying, listed as FeHEDTA (0.2% Fe)
  Dead Dandelions (#/10): 3 #/10
Dandelions [3]; dandelion diameter 20 cm, 7 + 6 days, listed as FeHEDTA (0.1% Fe)
  Dead Dandelions (#/10): 3 #/10
Dandelions [3]; dandelion diameter 20 cm, 7 + 6 days, listed as FeHEDTA (0.2% Fe)
  Dead Dandelions (#/10): 8 #/10
Dandelions [3]; dandelion diameter 20 cm, 6 days after spraying, listed as FeHEDTA (0.1% Fe)
  Dead Dandelions (#/10): 0 #/10
Dandelions [3]; dandelion diameter 20 cm, 6 days after spraying, listed as FeHEDTA (0.2% Fe)
  Dead Dandelions (#/10): 1 #/10
[4]; 7 days after spraying, listed as FeHEDTA (0.15% Fe)
  Dandelion Plants (#/0.5 m^2): 19 #/0.5 m^2
[4]; 7 days after spraying, listed as FeHEDTA (0.20% Fe)
  Dandelion Plants (#/0.5 m^2): 24 #/0.5 m^2
[4]; Example 12, text
  numbers of dandelions, in words: significantly reduced
[4]; day 0, listed as FeHEDTA (0.15% Fe)
  Dandelion Plants (#/0.5 m^2): 57 #/0.5 m^2
[4]; day 0, listed as FeHEDTA (0.20% Fe)
  Dandelion Plants (#/0.5 m^2): 84 #/0.5 m^2
[4]; listed as FeHEDTA (0.15% Fe)
  Survival of Dandelion Plants (%): 33%
[4]; listed as FeHEDTA (0.20% Fe)
  Survival of Dandelion Plants (%): 29%
White clover; A4 = 4 days after application, 0=no effect, 100=plant death
  Phytotoxicity (%) against white clover: 22%
White clover; A7 = 7 days after application
  Phytotoxicity (%) against white clover: 19%
White clover; A14 = 14 days after application
  Phytotoxicity (%) against white clover: 15%
Park Lawn
  Phytotoxicity (%) on Park Lawn: 3%
